Measured values: patent US20240174618A1, “SUBSTITUTED (2-HETEROARYLOXYPHENYL)SULFONATES, SALTS THEREOF AND THEIR USE AS HERBICIDAL AGENTS” (Bayer Aktiengesellschaft, priority 2021, published 2024)

Columns and labels:
Assay type in all cases: in vivo
[1] = system: Abutilon theophrasti (ABUTH); assay: A. Herbicidal pre-emergence efficacy, ABUTH; conditions: scored visually after about 3 weeks vs untreated controls
In short: (§1)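 Applied before emergence onto covering soil at rates of 1280 g/ha or less, using 600 L/ha spray water with 0.5% additive. Scoring: visual % efficacy after ~3 weeks, greenhouse.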

[2] = system: Kochia scoparia (KCHSC); assay: A. Herbicidal pre-emergence efficacy, KCHSC
In short: as §1

[3] = system: Veronica persica (VERPE); assay: A. Herbicidal pre-emergence efficacy, VERPE; conditions: for Pre-emergence efficacy against VERPE: dosage 80 g/ha
In short: as §1

[4] = system: Setaria viridis (SETVI); assay: B. Herbicidal post-emergence efficacy, SETVI
In short: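 Weeds grown in sandy loam in greenhouse and sprayed at the one-leaf stage, 2–3 weeks after sowing, with WP or EC formulations plus 0.5% additive at 600 L/ha water. Injury rated visually versus untreated controls after about 3 weeks (100% = dead, 0% = like control); rates up to 1280 g/ha.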

[5] = system: Alopecurus myosuroides (ALOMY); assay: C. Herbicidal pre-emergence efficacy, ALOMY; conditions: scored after about 3 weeks
In short: (§2)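 Pre-emergence test: formulated compounds sprayed as aqueous suspension or emulsion with 0.5% additive at 600 l/ha onto soil covering sown seeds, at rates corresponding to 320 g/ha or less. After about 3 weeks in greenhouse, efficacy scored visually as percent versus untreated controls (100% = plants dead).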

[6] = system: Veronica persica (VERPE); assay: C. Herbicidal pre-emergence efficacy, VERPE; conditions: scored after about 3 weeks
In short: as §2

[7] = system: Echinochloa crus-galli (ECHCG); assay: E. Herbicidal post-emergence efficacy, ECHCG
In short: (§3)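 Compounds applied at 320 g/ha or less as a foliar spray (600 l/ha, 0.5% additive) to one-leaf-stage greenhouse plants grown in sandy loam. Damage is visually scored in percent relative to untreated plants after about 3 weeks.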

[8] = system: Viola tricolor (VIOTR); assay: E. Herbicidal post-emergence efficacy, VIOTR
In short: as §3

[9] = 80 g/ha, scored visually after about 3 weeks vs untreated controls
[10] = pre-emergence, dosage 1280 g/ha

Compound	Pre-emergence efficacy against ABUTH ([1]; 80 g/ha)	Pre-emergence efficacy against ABUTH ([1]; 320 g/ha)	Pre-emergence efficacy against ABUTH ([1]; 1280 g/ha)	Pre-emergence efficacy against KCHSC [2, 9]	Pre-emergence efficacy against KCHSC ([2]; pre-emergence, dosage 320 g/ha)	Pre-emergence efficacy against KCHSC [2, 10]	Pre-emergence efficacy against VERPE in % ([3]; 320 g/ha)	Pre-emergence efficacy against VERPE in % ([3]; 1280 g/ha)	Pre-emergence efficacy against VERPE [3]	Post-emergence efficacy against SETVI ([4]; 320 g/ha)	Post-emergence efficacy against SETVI ([4]; 1280 g/ha)	Pre-emergence efficacy against ALOMY ([5]; 80 g/ha)	Pre-emergence efficacy against ALOMY ([5]; 320 g/ha)	Pre-emergence efficacy against VERPE ([6]; 80 g/ha)	Pre-emergence efficacy against VERPE ([6]; 320 g/ha)	Post-emergence efficacy against ECHCG in % ([7]; application rate 320 g/ha)	Post-emergence efficacy against VIOTR in % ([8]; application rate 320 g/ha)	Post-emergence efficacy against ECHCG in % ([7]; application rate 80 g/ha)	Post-emergence efficacy against VIOTR in % ([8]; application rate 80 g/ha)
O=S(=O)(CCCCl)Oc1ccccc1Oc1ncc(Cl)cn1 [Example I-2]	100%	100%	100%	100%	100%	100%	100%	100%	100%	100%	100%	90%	100%	90%	100%	100%	100%		
CCCS(=O)(=O)Oc1ccccc1Oc1ncc(Cl)cn1 [Example I-3]	100%	100%	100%	100%	100%	100%	100%	100%	100%		90%		100%		100%	90%			
CC(C)CCS(=O)(=O)Oc1ccccc1Oc1ncc(Cl)cn1 [Example I-25]			100%	90%	100%	100%		90%		90%	90%		80%	80%	100%	100%			
O=S(=O)(CCCC(F)(F)F)Oc1c(F)cccc1Oc1ncc(F)cn1 [Example I-42]	100%	100%	100%	100%	100%	100%	100%	100%	100%			100%	100%	100%	100%	100%	100%	100%	100%
O=S(=O)(CCC(F)(F)F)Oc1c(F)cccc1Oc1ncc(F)cn1 [Example I-47]	100%	100%	100%	100%	100%	100%	100%	100%	90%			100%	100%			100%	100%		100%
O=S(=O)(CCC(F)(F)F)Oc1c(F)cccc1Oc1ncc(Cl)cn1 [Example I-48]	90%	100%	100%	100%	100%	100%	100%	100%	90%	90%	90%	100%	100%			100%	100%	100%	100%
O=S(=O)(CCCC(F)(F)F)Oc1c(F)cccc1Oc1ncc(Cl)cn1 [Example I-49]	100%	100%	100%	100%	100%	100%	100%	100%	90%	90%	90%	100%	100%			100%	100%	100%	100%
C=CCCS(=O)(=O)Oc1c(F)cccc1Oc1ncc(Cl)cn1 [Example I-50]	90%	100%	100%	90%	100%	100%	100%	100%	90%		90%		90%			100%	100%		90%
COCCS(=O)(=O)Oc1c(F)cccc1Oc1ncc(Cl)cn1 [Example I-52]		100%	100%		90%	100%	100%	100%			90%		100%			100%	80%		
O=S(=O)(CCCC(F)F)Oc1c(F)cccc1Oc1ncc(Cl)cn1 [Example I-56]	100%	100%	100%	100%	100%	100%	100%	100%		90%	90%	100%	100%			100%	100%	80%	100%
O=S(=O)(CCC(F)=C(F)F)Oc1c(F)cccc1Oc1ncc(Cl)cn1 [Example I-70]													100%	80%	100%	100%	100%	80%	100%
N#Cc1cccc(Oc2ncc(Cl)cn2)c1OS(=O)(=O)CCCC(F)(F)F [Example I-81]													90%	100%	100%	80%	100%	80%	100%
